# Data published in patent US7112574B2, “C2,8-disubstituted adenosine derivatives and their different uses” (priority 2001, dated 2006).
# Assays:
# [1] = biological target: T1, human A3 receptor (Homo sapiens, UniProt P0DMS8); experiment: Radioligand binding, displacement of [125I]AB-MECA from human A3 receptor expressed in HEK 293 cells
# T1 construct: expressed in transfected cells; host or cells: HEK 293
# T1 sequence (P0DMS8 1-318): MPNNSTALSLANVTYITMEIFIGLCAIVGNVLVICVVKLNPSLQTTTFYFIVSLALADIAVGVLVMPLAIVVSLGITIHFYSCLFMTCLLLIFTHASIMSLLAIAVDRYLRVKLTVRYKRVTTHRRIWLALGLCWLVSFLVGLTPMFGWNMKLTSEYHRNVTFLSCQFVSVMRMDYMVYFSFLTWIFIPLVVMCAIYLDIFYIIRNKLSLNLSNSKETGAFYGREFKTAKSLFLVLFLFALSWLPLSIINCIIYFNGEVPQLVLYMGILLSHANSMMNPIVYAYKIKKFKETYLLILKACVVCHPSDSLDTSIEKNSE
# Protocol: (§1) Incubations were carried out for 1 hr at 37° C. and were terminated by rapid filtration over Whatman GF/B filters, using a Brandell cell harvester (Brandell, Gaithersburg, Md.). Tubes were washed three times with 3 ml of buffer. Radioactivity was determined in a Beckman 5500B γ-counter. Nonspecific binding was determined in the presence of 10^−5 M R-PIA.
# (§2) All compounds prepared were tested in radioligand binding assays to determine their affinities for the adenosine A1 receptor in rat brain cortex, the A2A receptor in rat striatum and the human A3 receptor as expressed in HEK 293 cells (Table 2, hereinafter). The Ki values were computed from the displacement curves obtained by nonlinear regression of the competition curves with the software package Prism (Graph Pad, San Diego, Calif.)
# (§3) For the adenosine A1 receptor, the tritiated antagonist, [^3H]-1,3-dipropyl-8-cyclopentylxanthine ([^3H]DPCPX), and for the adenosine A2A receptor, the tritiated antagonist [^3H]ZM 241385 were used. Since radiolabeled antagonists are not commercially available for the adenosine A3 receptor, [125I]AB-MECA, an A3 receptor agonist, was used. Displacement experiments were performed in the absence of GTP.
# [2] = biological target: T2, adenosine A1 receptor (Rattus norvegicus, UniProt P25099); experiment: biochemical; conditions: read-out: % displacement at 10^-5 M, A1
# T2 sequence (P25099 1-326): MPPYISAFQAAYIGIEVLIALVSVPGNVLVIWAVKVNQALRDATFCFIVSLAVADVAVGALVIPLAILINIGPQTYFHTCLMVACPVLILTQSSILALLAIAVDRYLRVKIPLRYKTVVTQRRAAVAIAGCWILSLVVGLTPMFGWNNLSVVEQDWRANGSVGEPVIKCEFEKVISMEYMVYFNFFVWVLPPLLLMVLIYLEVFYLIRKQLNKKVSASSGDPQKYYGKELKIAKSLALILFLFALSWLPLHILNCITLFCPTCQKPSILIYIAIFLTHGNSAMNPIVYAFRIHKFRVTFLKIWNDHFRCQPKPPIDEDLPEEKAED
# Protocol: as §1, §2, §3
# [3] = biological target: adenosine A2A receptor (Rattus norvegicus, UniProt P30543); experiment: biochemical
# Protocol: as §1, §2, §3
# [4] = biological target: human adenosine A2A receptors (Homo sapiens, UniProt P29274)
# Protocol: CHO cells expressing the human adenosine A2A receptors were grown overnight as a monolayer in 24 wells tissue culture plates (400 μl/well; 2×10^5 cells/well). cAMP generation was performed in Dulbecco's Modified Eagles Medium (DMEM)/N-2-hydroxyethylpiperazin-N′-2-ethansulfonic acid HEPES) buffer (0.60 g HEPES/50 ml DMEM pH 7.4). To each well, washed three times with DMEM/HEPES buffer (250 μl), 100 μl DMEM/HEPES buffer, 100 μl adenosine deaminase (final concentration 5 IU/ml) and 100 μl of a mixture of rolipram and cilostamide (final concentration 50 μM each) were added. After incubation for 40 minutes at 37° C., 100 μL agonist was added. After 15 minutes at 37° C., the reaction was terminated by removing the medium and adding 200 μl 0.1 M HCl. Wells were stored at −20° C. until assay.
# The amounts of cAMP were determined after a protocol with cAMP binding protein^12 with the following minor modifications. As a buffer was used 150 mM K2HPO4/10 mM EDTA/0.2% Bovine Serum Albumine (BSA) at pH 7.5. Samples (20 μl+30 μl 0.1 M HCl) were incubated for at least 2.5 hours at 0° C. before filtration over Whatman GF/B filters. […] Filters were counted in Packard Emulsifier Safe scintillation fluid (3.5 ml) after 24 hours of extraction.
# All compounds prepared were also tested in a functional assay.
structure (smiles),measurement,setting,value
"CCCC/C=C/c1nc(N)c2nc(NCC)n([C@@H]3O[C@H](CO)[C@@H](O)[C@H]3O)c2n1 [Compound 18, 2-((E)-1-hexenyl)-8-ethylaminoadenosine]",melting point,,128 to 130 °C
same,Ki,[1],17.5 ± 2.1 µM
same,inhibition at 10 µM,[2],30%
same,Ki,[3],1.84 ± 0.3 µM
same,A3/A2A,[3]; ratio of Ki A3 (human) to Ki A2A (rat),9.53
same,% cAMP production hA2A,[4],65% (63–66)
